In experiment [1] the test system is E. aerogenes ATCC2924. In words: Serial microdilution assay (MIC). It counts as cell-based, Enterobacter Aerogenes. The method, then: (§1) […]. […] Four types of gram-positive bacterial strains (St. pyogenez, B. subtilis, B. cereus, S. aureus) and five types of the gram-negative (S. enteridis, E. aerogenes, P. aeruginosa, E. coli, and S. gallinarum) were sensitive to 4 and 1. […]. The minimal inhibitory concentration value was studied for the microorganism cells, which evaluated to sensitive the substances and they tested in the disc-diffusion method. Inoculate of microorganism was prepared utilizing 12 h suspensions and broth cultures were adjusted to 0.5 McFarland turbidity standard. Each substance was dissolved in 10% dimethyl sulfoxide which diluted to the highest concentration (1000 µg/mL) for testing. […]. Also, prepared suspensions for standard microorganisms were added to each dilution in a 1:1 ratio. Growth act of microorganism cells was determined visually after incubation at 36 °C. The minimum concentration was no visible growth which was taken as the MIC.
For orientation: In broth dilution the organism is exposed to a series of concentrations in liquid medium.

Experiment [2] has as its system S. aureus ATCC29213. In words: Serial microdilution assay (MIC). The experiment is classed as cell-based, Staphylococcus aureus. The protocol: as §1
For experiment [3], the system named is B. cereus DSM 4312. In words: Serial microdilution assay (MIC). It counts as cell-based, Bacillus Cereus. The protocol:
as §1

In experiment [4] the test system is B. subtilis ATCC6633. In words: Serial microdilution assay (MIC). It counts as cell-based, Bacillus Subtilis. The protocol:
as §1

The subject of experiment [5] is S. enteridis ATCC13076. The experiment in a line: Serial microdilution assay (MIC). The experiment is classed as cell-based, Salmonella Enteritidis. The protocol: as §1
The subject of experiment [6] is St. pyogenez ATCC176. The experiment in a line: Serial microdilution assay (MIC). The experiment is classed as cell-based, Steptococcus Pyogerez. The protocol: as §1
The test system of experiment [7] is E. coli 111. In words: Serial microdilution assay (MIC). It counts as cell-based, Escherichia coli. The method, then:
as §1

The subject of experiment [8] is bacterial strains (four gram-positive, five gram-negative). In words: Disc diffusion assay, range over the bacterial strains. The experiment is classed as cell-based. The method, then:
[…]. […] Four types of gram-positive bacterial strains (St. pyogenez, B. subtilis, B. cereus, S. aureus) and five types of the gram-negative (S. enteridis, E. aerogenes, P. aeruginosa, E. coli, and S. gallinarum) were sensitive to 4 and 1. […]. In this study, 10 microbial cultures of this part, belonging to ten types of bacterial were used. The culture was grown in Mueller–Hinton Broth (Merck) for all the bacterial strains at 36 °C. Antimicrobial test was carried out by using disc-diffusion assay utilizing 100 µL of suspension with 10^8 CFU/mL of bacteria and 10^6 CFU/mL of yeast spread on Nutrient Agar and Potato Dextrose Agar, respectively. Also, the blank disc (Oxoid = 6 mm in diameter) was impregnated with 20 µL of each substance (105 µg/disc) and placed on the inoculated agar. Negative controls ([…]) were prepared using the same solvent (water) employed to dissolve each substance. […]. The inoculated plate was incubated at 36 °C for clinical bacterial strains. Antimicrobial activities were evaluated by obtaining the zone of inhibitory effect against the test organisms.
For orientation: A growth-free zone around the sample is the usual read-out of agar diffusion tests.

In experiment [9] the test system is S. gallinarum. The experiment in a line: Serial microdilution assay (MIC). It counts as cell-based, Salmonella Gallinarum. The method, then:
as §1

Experiment [10] has as its system bacterial strains (four gram-positive, five gram-negative). In words: Serial microdilution assay (MIC), range over the bacterial strains. The experiment is classed as cell-based. The protocol: as §1
Experiment [11] concerns P. aeruginosa ATCC9027. The experiment in a line: Serial microdilution assay (MIC). It counts as cell-based, Pseudomonas Aureginosa. The method, then: as §1

On to “[Cd(N-bishydeten)]4[Ag(CN)2]8[Ag(CN)]2 [Complex 4]”, for which the “Minimum-inhibitory concentrations (MIC), E. aerogenes ATCC2924” value in experiment [1] is 125 ± 53.40 µg/mL. Moreover, in experiment [2], the “Minimum-inhibitory concentrations (MIC), S. aureus ATCC29213” value is 62.50 ± 0.0 µg/mL. For the same substance, the “Minimum-inhibitory concentrations (MIC), B. cereus DSM 4312” value in [3] worked out at 62.50 ± 18.04 µg/mL. For the same substance, in experiment [4], the “Minimum-inhibitory concentrations (MIC), B. subtilis ATCC6633” value is recorded as 31.25 ± 0.0 µg/mL. Also, the “Minimum-inhibitory concentrations (MIC), S. enteridis ATCC13076” value in experiment [5] was determined as 62.50 ± 0.14 µg/mL. The “Minimum-inhibitory concentrations (MIC), St. pyogenez ATCC176” value in experiment [6] came out at 31.25 ± 9.02 µg/mL. Further, the “Minimum-inhibitory concentrations (MIC), E. coli 111” value in experiment [7] came out at 31.25 ± 0.0 µg/mL. In addition, the “inhibition zones, range over the bacterial strains” value in experiment [8] is reported as 25–37 mm. The “Minimum-inhibitory concentrations (MIC), S. gallinarum” value in [9] came to 125 ± 0.0 µg/mL. Besides, in experiment [10], the “MIC, joint range for 4 and 1 over the strains” value lay within 15.62 to 125 µg/mL; the “MIC, range over the bacterial strains” value was 31.25 to 125 µg/mL. The “Minimum-inhibitory concentrations (MIC), P. aeruginosa ATCC9027” value in experiment [11] came out at 62.50 ± 0.0 µg/mL.
